Laboratory results as given in ChEMBL document CHEMBL4041469, “The replacement of the 2-methoxy substituent of N-((6,6-diphenyl-1,4-dioxan-2-yl)methyl)-2-(2-methoxyphenoxy)ethan-1-amine improves the selectivity for 5-HT1A receptor over α1-adrenoceptor and D2-like receptor subtypes” (Eur J Med Chem, 2017).
Activity calls are given as the source filed them. No cut-off for these calls is given here.

Columns and labels:
[1] = biological target: T1, Alpha-1D adrenergic receptor (Homo sapiens, UniProt P25100); test: Displacement of [3H]prazosin from recombinant human alpha-1d adrenergic receptor expressed in CHO cell membranes after 30 mins by liquid scintillation counting method
T1 sequence (P25100 whole entry): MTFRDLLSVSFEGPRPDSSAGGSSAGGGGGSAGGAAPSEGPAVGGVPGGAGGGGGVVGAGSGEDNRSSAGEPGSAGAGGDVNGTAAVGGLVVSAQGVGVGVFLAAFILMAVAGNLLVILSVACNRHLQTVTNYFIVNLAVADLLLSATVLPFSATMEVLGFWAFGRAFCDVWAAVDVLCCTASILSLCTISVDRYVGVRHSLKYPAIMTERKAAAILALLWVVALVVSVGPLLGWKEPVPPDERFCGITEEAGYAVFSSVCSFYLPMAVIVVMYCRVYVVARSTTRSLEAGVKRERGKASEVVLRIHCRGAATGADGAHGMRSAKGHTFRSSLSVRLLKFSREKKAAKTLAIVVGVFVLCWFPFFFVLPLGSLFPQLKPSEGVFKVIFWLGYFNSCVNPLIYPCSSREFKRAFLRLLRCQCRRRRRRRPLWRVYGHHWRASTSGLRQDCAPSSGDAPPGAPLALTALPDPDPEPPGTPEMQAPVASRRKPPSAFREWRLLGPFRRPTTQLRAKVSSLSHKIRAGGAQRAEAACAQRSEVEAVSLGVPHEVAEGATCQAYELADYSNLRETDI

[2] = tested on: Mus musculus; test: Anxiolytic activity in CD-1 mouse assessed as increase in latency time to enter dark area at 2.5 mg/kg, ip administered 30 mins prior to test by light/dark exploration test; type: functional, organism-based
[3] = tested on: Mus musculus; test: Anxiolytic activity in CD-1 mouse assessed as increase in time spent in light area at 2.5 mg/kg, ip administered 30 mins prior to test by light/dark exploration test; type: functional, organism-based
[4] = biological target: T2, 5-hydroxytryptamine receptor 1A (Homo sapiens) (UniProt P08908); test: Agonist activity at recombinant human 5HT1A receptor expressed in human HeLa cell membranes assessed as stimulation of [35S]GTPgammaS binding preincubated for 20 mins followed by [35S]GTPgammaS addition measured after 30 mins by liquid scintillation counting method; type: functional
T2 sequence (whole entry): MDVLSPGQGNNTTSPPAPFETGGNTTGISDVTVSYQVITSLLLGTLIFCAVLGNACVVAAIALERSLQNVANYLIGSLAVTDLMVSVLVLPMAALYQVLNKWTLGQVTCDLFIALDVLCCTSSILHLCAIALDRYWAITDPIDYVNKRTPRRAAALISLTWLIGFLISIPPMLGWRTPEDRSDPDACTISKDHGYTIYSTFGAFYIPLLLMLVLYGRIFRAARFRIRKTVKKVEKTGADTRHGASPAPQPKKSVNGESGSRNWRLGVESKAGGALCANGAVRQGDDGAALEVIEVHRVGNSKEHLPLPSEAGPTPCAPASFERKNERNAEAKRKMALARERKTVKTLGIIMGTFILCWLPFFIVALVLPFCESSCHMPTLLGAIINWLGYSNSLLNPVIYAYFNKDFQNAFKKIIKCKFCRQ

[5] = Selectivity index, ratio of Ki for recombinant human D4 receptor expressed in HEK293 cell membranes to Ki for recombinant human 5HT1A receptor expressed in human HeLa cell membranes
[6] = biological target: T3, D(4) dopamine receptor (Homo sapiens, UniProt P21917); test: Displacement of [3H]N-methylspiperone from recombinant human D4 receptor expressed in HEK293 cell membranes after 1 hr by liquid scintillation counting method
T3 sequence (P21917 whole entry): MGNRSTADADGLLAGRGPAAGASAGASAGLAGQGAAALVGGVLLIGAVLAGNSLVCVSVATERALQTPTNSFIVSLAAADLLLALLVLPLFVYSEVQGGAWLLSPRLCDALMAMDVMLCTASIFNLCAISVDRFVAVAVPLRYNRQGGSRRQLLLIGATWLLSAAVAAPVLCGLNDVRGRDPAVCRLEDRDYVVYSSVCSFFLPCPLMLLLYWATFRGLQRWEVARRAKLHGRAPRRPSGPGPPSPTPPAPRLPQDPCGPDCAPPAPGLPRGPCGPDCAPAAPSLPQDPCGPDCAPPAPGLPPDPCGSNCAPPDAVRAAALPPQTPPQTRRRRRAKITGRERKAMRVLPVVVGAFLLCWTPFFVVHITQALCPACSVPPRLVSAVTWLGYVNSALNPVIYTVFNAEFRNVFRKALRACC

[7] = Selectivity index, ratio of Ki for recombinant human alpha-1d adrenergic receptor expressed in CHO cell membranes to Ki for recombinant human 5HT1A receptor expressed in human HeLa cell membranes
[8] = Selectivity index, ratio of Ki for recombinant human alpha-1a adrenergic receptor expressed in CHO cell membranes to Ki for recombinant human 5HT1A receptor expressed in human HeLa cell membranes
[9] = biological target: D(2) dopamine receptor (Homo sapiens, UniProt P14416); test: Displacement of [3H]N-methylspiperone from recombinant human D2 receptor expressed in HEK293 cell membranes after 1 hr by liquid scintillation counting method
Sequence of D(2) dopamine receptor (P14416 whole entry): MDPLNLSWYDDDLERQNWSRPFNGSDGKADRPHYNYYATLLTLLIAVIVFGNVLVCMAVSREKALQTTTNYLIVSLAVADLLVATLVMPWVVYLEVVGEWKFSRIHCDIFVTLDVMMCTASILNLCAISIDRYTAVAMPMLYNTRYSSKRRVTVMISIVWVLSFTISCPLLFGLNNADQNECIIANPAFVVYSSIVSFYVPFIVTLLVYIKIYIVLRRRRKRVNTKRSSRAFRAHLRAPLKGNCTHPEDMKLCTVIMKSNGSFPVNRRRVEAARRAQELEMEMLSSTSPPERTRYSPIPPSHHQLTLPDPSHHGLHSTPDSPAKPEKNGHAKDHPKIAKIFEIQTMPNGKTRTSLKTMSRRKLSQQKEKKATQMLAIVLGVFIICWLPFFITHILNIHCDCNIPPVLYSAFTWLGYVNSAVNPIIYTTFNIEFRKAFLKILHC

[10] = Selectivity index, ratio of Ki for recombinant human alpha-1b adrenergic receptor expressed in CHO cell membranes to Ki for recombinant human 5HT1A receptor expressed in human HeLa cell membranes
[11] = biological target: D(3) dopamine receptor (Homo sapiens, UniProt P35462); test: Displacement of [3H]N-methylspiperone from recombinant human D3 receptor expressed in HEK293 cell membranes after 1 hr by liquid scintillation counting method
Sequence of D(3) dopamine receptor (P35462 whole entry): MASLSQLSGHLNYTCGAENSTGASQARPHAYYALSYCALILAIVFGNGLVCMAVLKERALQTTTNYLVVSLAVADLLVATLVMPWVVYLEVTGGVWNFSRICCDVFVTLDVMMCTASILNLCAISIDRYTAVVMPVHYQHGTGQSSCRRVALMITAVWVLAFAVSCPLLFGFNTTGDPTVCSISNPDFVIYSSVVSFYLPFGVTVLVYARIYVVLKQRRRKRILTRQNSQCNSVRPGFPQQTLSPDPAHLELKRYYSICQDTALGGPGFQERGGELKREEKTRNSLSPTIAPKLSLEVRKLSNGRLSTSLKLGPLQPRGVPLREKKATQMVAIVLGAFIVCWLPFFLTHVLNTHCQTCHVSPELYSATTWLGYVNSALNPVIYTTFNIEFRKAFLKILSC

[12] = Selectivity index, ratio of Ki for recombinant human D3 receptor expressed in HEK293 cell membranes to Ki for recombinant human 5HT1A receptor expressed in human HeLa cell membranes
[13] = Selectivity index, ratio of Ki for recombinant human D2 receptor expressed in HEK293 cell membranes to Ki for recombinant human 5HT1A receptor expressed in human HeLa cell membranes
[14] = biological target: T4, Alpha-1B adrenergic receptor (Homo sapiens, UniProt P35368); test: Displacement of [3H]prazosin from recombinant human alpha-1b adrenergic receptor expressed in CHO cell membranes after 30 mins by liquid scintillation counting method
T4 sequence (P35368 whole entry): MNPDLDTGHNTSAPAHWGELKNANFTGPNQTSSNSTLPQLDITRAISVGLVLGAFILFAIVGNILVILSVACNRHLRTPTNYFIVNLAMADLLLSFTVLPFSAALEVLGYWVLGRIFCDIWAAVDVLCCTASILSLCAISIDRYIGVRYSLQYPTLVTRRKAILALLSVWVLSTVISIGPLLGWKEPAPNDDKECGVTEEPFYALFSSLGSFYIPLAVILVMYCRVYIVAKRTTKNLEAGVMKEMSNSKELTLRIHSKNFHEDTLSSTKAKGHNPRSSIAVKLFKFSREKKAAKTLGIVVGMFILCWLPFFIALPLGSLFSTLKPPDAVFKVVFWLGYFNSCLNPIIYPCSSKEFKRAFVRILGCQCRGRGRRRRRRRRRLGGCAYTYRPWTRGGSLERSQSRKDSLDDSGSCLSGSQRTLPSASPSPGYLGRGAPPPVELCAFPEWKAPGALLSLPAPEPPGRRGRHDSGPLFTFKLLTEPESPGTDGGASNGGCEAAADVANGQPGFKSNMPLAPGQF

[15] = biological target: T2, 5-hydroxytryptamine receptor 1A (Homo sapiens); test: Agonist activity at recombinant human 5HT1A receptor expressed in human HeLa cell membranes assessed as stimulation of [35S]GTPgammaS binding up to 10 uM preincubated for 20 mins followed by [35S]GTPgammaS addition measured after 30 mins by liquid scintillation counting method relative to 5-HT; type: functional
[16] = biological target: T5, Alpha-1A adrenergic receptor (Homo sapiens, UniProt P35348); test: Displacement of [3H]prazosin from recombinant human alpha-1a adrenergic receptor expressed in CHO cell membranes after 30 mins by liquid scintillation counting method
T5 sequence (P35348 whole entry): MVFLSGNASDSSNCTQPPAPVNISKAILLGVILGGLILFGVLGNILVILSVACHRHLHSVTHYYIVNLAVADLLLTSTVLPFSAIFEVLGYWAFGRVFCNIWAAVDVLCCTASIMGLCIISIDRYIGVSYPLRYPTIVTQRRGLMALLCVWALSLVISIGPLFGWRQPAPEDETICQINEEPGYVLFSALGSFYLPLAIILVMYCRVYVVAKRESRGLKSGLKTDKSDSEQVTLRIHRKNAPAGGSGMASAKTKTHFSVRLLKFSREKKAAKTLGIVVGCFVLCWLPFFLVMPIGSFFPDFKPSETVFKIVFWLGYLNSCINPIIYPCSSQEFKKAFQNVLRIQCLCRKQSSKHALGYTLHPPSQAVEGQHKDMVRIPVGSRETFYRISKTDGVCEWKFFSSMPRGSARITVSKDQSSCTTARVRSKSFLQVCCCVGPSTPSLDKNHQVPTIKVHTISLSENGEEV

[17] = biological target: T6, 5-hydroxytryptamine receptor 1A (Homo sapiens, UniProt P08908); test: Displacement of [3H]8-OH-DPAT from recombinant human 5HT1A receptor expressed in human HeLa cell membranes after 30 mins by liquid scintillation counting method
T6 sequence (P08908 whole entry): T2 sequence (whole entry)

[18] = tested on: Mus musculus; test: Anxiolytic activity in CD-1 mouse assessed as increase in time spent in light area at 30 mg/kg, ip administered 30 mins prior to test in presence of 5HT1A receptor antagonist WAY100135 by light/dark exploration test; type: functional, organism-based
[19] = tested on: Mus musculus; test: Anxiolytic activity in ip dosed CD-1 mouse assessed as increase in latency time to enter dark area administered 30 mins prior to test by light/dark exploration test; type: functional, organism-based
[20] = tested on: Mus musculus; test: Anxiolytic activity in ip dosed CD-1 mouse assessed as increase in time spent in light area administered 30 mins prior to test by light/dark exploration test; type: functional, organism-based

| SMILES | Ki [1] | pD2 [4] | Ki [14] | Emax [15] | Ki [16] | Ki [17] | other results |
| --- | --- | --- | --- | --- | --- | --- | --- |
| O=C1CC2(CCCC2)CC(=O)N1CCN1CCN(c2ccccc2O)CC1 | 16.2 nM | – | – | – | – | – | – |
| CN1C(=O)CN=C(c2ccccc2)c2cc(Cl)ccc21 | – | – | – | – | – | – | Activity [2]: Active; Activity [3]: Active |
| COc1cccc(OC)c1OCCNC[C@@H]1COCC(c2ccccc2)(c2ccccc2)O1 | – | 5.88 | – | – | – | – | – |
| COc1cccc(OC)c1OCCNC[C@H]1COCC(c2ccccc2)(c2ccccc2)O1 | – | 8.3 | – | – | – | – | – |
| COc1ccccc1N1CCN(CCN2C(=O)CC3(CCCC3)CC2=O)CC1 | – | 9.27 | – | – | – | – | – |
| COc1ccccc1OCCNC[C@@H]1COCC(c2ccccc2)(c2ccccc2)O1 | – | 7.7 | – | – | – | – | – |
| COc1ccccc1OCCNC[C@H]1COCC(c2ccccc2)(c2ccccc2)O1 | – | 9.19 | – | – | – | – | – |
| COc1ccccc1OCCNCC1COCC(c2ccccc2)(c2ccccc2)O1 (racemic) | – | 9.4 | – | – | – | – | Ratio Ki [5]: 13; Ki [6]: 8.32 nM; Ratio Ki [7]: 2; Ratio Ki [8]: 42; Ki [9]: 12.3 nM; Ratio Ki [10]: 85; Ki [11]: 13.2 nM; Ratio Ki [12]: 20; Ratio Ki [13]: 19 |
| O=[N+]([O-])c1ccccc1OCCNCC1COCC(c2ccccc2)(c2ccccc2)O1 (racemic) | 6.61 nM | 8.93 | 251 nM | 82.5 to 82.6% | 117 nM | 0.562 nM | – |
| Cc1ccccc1OCCNCC1COCC(c2ccccc2)(c2ccccc2)O1 (racemic) | 5.01 nM | 8.73 | 178 nM | 59.7% | 170 nM | 1.12 nM | – |
| COCOc1ccccc1OCCNCC1COCC(c2ccccc2)(c2ccccc2)O1 (racemic) | 79.4 nM | 9.41 | 288 nM | 62.8% | 282 nM | 0.631 nM | Ratio Ki [5]: 81; Activity [18]: inactive; Ki [6]: 51.3 nM; Ratio Ki [7]: 126; Activity [19]: Dose-dependent effect; Ratio Ki [8]: 447; Ki [9]: 105 nM; Ratio Ki [10]: 457; Activity [20]: Dose-dependent effect; Ki [11]: 66.1 nM; Ratio Ki [12]: 105; Ratio Ki [13]: 166 |
| Clc1ccccc1OCCNCC1COCC(c2ccccc2)(c2ccccc2)O1 (racemic) | 5.89 nM | 8.7 | 120 nM | 66% | 115 nM | 0.794 nM | – |
| COc1ccccc1OCCNCC1COC(c2ccccc2)(c2ccccc2)CO1 (racemic) | – | – | – | – | – | 7.59 nM | – |
| c1ccc(OCCNCC2COC(c3ccccc3)(c3ccccc3)CO2)cc1 (racemic) | – | – | – | – | – | 37.2 nM | – |
| Oc1ccccc1OCCNCC1COCC(c2ccccc2)(c2ccccc2)O1 (racemic) | 77.6 nM | 7.8 | 372 nM | 65.6% | 195 nM | 0.692 nM | Ratio Ki [5]: 53; Ki [6]: 36.3 nM; Ratio Ki [7]: 112; Ki [9]: 15.5 nM; Ki [11]: 33.9 nM; Ratio Ki [12]: 49; Ratio Ki [13]: 22 |
| COc1cccc(OC)c1OCCNCC1COC(c2ccccc2)(c2ccccc2)CO1 (racemic) | – | – | – | – | – | 229 nM | – |
| c1ccc(C2(c3ccccc3)COCC(CNCCOc3ccccn3)O2)cc1 (racemic) | 5.5 nM | 8.02 | 115 nM | 63.9% | 155 nM | 0.891 nM | – |
| COc1cccc(OC)c1OCCNCC1COCC(c2ccccc2)(c2ccccc2)O1 (racemic) | – | 8.28 | – | – | – | – | – |
| COc1ccccc1OCCNC[C@@H]1COC[C@H](c2ccccc2)O1 (racemic) | – | – | – | 78.1% | – | – | – |
| COc1ccccc1OCCNC[C@@H]1CO[C@H](c2ccccc2)CO1 (racemic) | – | 7.88 | – | 85.5% | – | – | – |
